In US7901700B2, “Bifenthrin/acetamiprid compositions for control of general household pests” (FMC Corporation, priority 2004, dated 2011):

Experiments:
Red Imported Fire Ant = assay: Red imported fire ant knockdown and mortality, spray chamber application; format: in vivo, Solenopsis invicta
Experimental: The compositions of the present invention were tested for red imported fire ant activity in the following manner:
(§1) Test compositions made up of TALSTARONE® MULTI-INSECTICIDE and a 70% wettable powder of acetamiprid in distilled water were prepared that provided appropriate rates of application of combinations of bifenthrin and acetamiprid, as well as bifenthrin and acetamiprid alone.
(§2) The spray chamber was then calibrated to deliver the treatment solution at the desired volume and pressure over the desired area on the chamber shelf. Spray chamber shelf height was adjusted to approximately 18 inches from the spray tip. The shelf was then covered with aluminum foil and the center of the shelf from front-to-back and end-to-end was determined. The red imported fire ants to be treated were collected and placed in screened 16 oz paper cups. The paper cups were placed onto the aluminum foil on the spray chamber shelf. The sprayer was activated and the test compound was applied to each paper cup interior. Red imported fire ant knockdown and mortality were measured.

Bed Bugs = assay: Bed bug mortality, spray chamber application; format: in vivo
Experimental: The compositions of the present invention were tested for bed bug activity in the following manner:
as §1
as §2, with “approximately 10.5” for “approximately 18”, “The bed bugs” for “The red imported fire ants”, “interior. Bed bug” for “interior. Red imported fire ant knockdown and”, “mortality was” for “mortality were”

German cockroach = German cockroach knockdown and mortality, spray chamber application; format: in vivo
Experimental: The compositions of the present invention were tested for German cockroach activity in the following manner:
as §1
The spray chamber was then calibrated to deliver the treatment solution at the desired volume and pressure over the desired area on the chamber shelf. Spray chamber shelf height was adjusted to approximately 18 inches from the spray tip. The shelf was then covered with aluminum foil and the center of the shelf from front-to-back and end-to-end was determined. A desired number of 4.0″ sieve circles were marked on the aluminum foil with a permanent marker. The inside of a desired number of PVC rings were coated with a petroleum jelly/mineral oil mixture (1:2 ratio). The PVC rings were place on the sieve circles. 10 male German cockroaches were placed inside each PVC ring. The sprayer was activated and the test compound was applied to each PVC ring interior. German cockroach knockdown and mortality were measured.

House Flies = assay: House fly knockdown and mortality, hand held sprayer application; format: in vivo
Experimental: The compositions of the present invention were tested for house fly activity in the following manner:
as §1
A DeVilbiss hand held sprayer was used to deliver the treatment solution at the desired volume and pressure. The house flies to be treated were collected and placed in screened 16 oz paper cups. The hand held sprayer was activated and the test compound was applied to each paper cup interior. House fly knockdown and mortality were measured.

[1] = Rate of Appln. 300 PPM (0.03% by weight)
[2] = Rate of Appln. 600 PPM (0.06% by weight)
[3] = Rate of Appln. 200 PPM (0.02% by weight)
[4] = Rate of Appln. 10 PPM (0.001% by weight)
[5] = Rate of Appln. 50 PPM (0.005% by weight)
[6] = Rate of Appln. 125 PPM (0.0125% by weight)
[7] = Rate of Appln. 250 PPM (0.025% by weight)
[8] = Rate of Appln. 500 PPM (0.05% by weight)
[9] = Rate of Appln. 1000 PPM (0.10% by weight)
[10] = Rate of Appln. 100 PPM (0.01% by weight)

SMILES: Cc1c(COC(=O)[C@@H]2[C@H](/C=C(\Cl)C(F)(F)F)C2(C)C)cccc1-c1ccccc1 (racemic) [A, 2-methylbiphenyl-3-ylmethyl(Z)-(1RS)-cis-3-(2-chloro-3,3,3-trifluoroprop-1-enyl)-2,2-dimethylcyclopropanecarboxylate]
- Knockdown Rate @ 10 minutes (Red Imported Fire Ant; [1]): 63%
- Knockdown Rate @ 15 minutes (Red Imported Fire Ant; [1]): 100%
- Knockdown Rate @ 30 minutes (Red Imported Fire Ant; [1]): 100%
- Mortality Rate @ 60 minutes (Red Imported Fire Ant; [1]): 100%
- Mortality Rate @ 120 minutes (Red Imported Fire Ant; [1]): 100%
- Mortality Rate @ 240 minutes (Red Imported Fire Ant; [1]): 100%
- Knockdown Rate @ 10 minutes (Red Imported Fire Ant; [2]): 78%
- Knockdown Rate @ 15 minutes (Red Imported Fire Ant; [2]): 100%
- Knockdown Rate @ 30 minutes (Red Imported Fire Ant; [2]): 100%
- Mortality Rate @ 60 minutes (Red Imported Fire Ant; [2]): 100%
- Mortality Rate @ 120 minutes (Red Imported Fire Ant; [2]): 100%
- Mortality Rate @ 240 minutes (Red Imported Fire Ant; [2]): 100%
- Mortality Rate @ 2 hours (Bed Bugs; [3]): 85%
- Mortality Rate @ 1 day (Bed Bugs; [3]): 100%
- Mortality Rate @ 2 hours (Bed Bugs; [2]): 75%
- Mortality Rate @ 1 day (Bed Bugs; [2]): 100%
- Knockdown Rate @ 10 minutes (German cockroach; [4]): 0%
- Knockdown Rate @ 15 minutes (German cockroach; [4]): 3%
- Knockdown Rate @ 30 minutes (German cockroach; [4]): 23%
- Mortality Rate @ 60 minutes (German cockroach; [4]): 40%
- Mortality Rate @ 240 minutes (German cockroach; [4]): 50%
- Knockdown Rate @ 10 minutes (German cockroach; [5]): 0%
- Knockdown Rate @ 15 minutes (German cockroach; [5]): 0%
- Knockdown Rate @ 30 minutes (German cockroach; [5]): 0%
- Mortality Rate @ 60 minutes (German cockroach; [5]): 38%
- Mortality Rate @ 240 minutes (German cockroach; [5]): 60%
- Knockdown Rate @ 10 minutes (German cockroach; [3]): 0%
- Knockdown Rate @ 15 minutes (German cockroach; [3]): 3%
- Knockdown Rate @ 30 minutes (German cockroach; [3]): 45%
- Mortality Rate @ 60 minutes (German cockroach; [3]): 100%
- Mortality Rate @ 120 minutes (German cockroach; [3]): 100%
- Mortality Rate @ 240 minutes (German cockroach; [3]): 100%
- Knockdown Rate @ 10 minutes (German cockroach; [2]): 0%
- Knockdown Rate @ 15 minutes (German cockroach; [2]): 8%
- Knockdown Rate @ 30 minutes (German cockroach; [2]): 60%
- Mortality Rate @ 60 minutes (German cockroach; [2]): 100%
- Mortality Rate @ 120 minutes (German cockroach; [2]): 100%
- Mortality Rate @ 240 minutes (German cockroach; [2]): 100%
- Knockdown Rate @ 15 minutes (House Flies; [4]): 0%
- Knockdown Rate @ 30 minutes (House Flies; [4]): 0%
- Knockdown Rate @ 60 minutes (House Flies; [4]): 19%
- Knockdown Rate @ 120 minutes (House Flies; [4]): 19%
- Knockdown Rate @ 240 minutes (House Flies; [4]): 48%
- Mortality Rate @ 1 day (House Flies; [4]): 3%
- Knockdown Rate @ 15 minutes (House Flies; [5]): 0%
- Knockdown Rate @ 30 minutes (House Flies; [5]): 19%
- Knockdown Rate @ 60 minutes (House Flies; [5]): 59%
- Knockdown Rate @ 120 minutes (House Flies; [5]): 63%
- Knockdown Rate @ 240 minutes (House Flies; [5]): 100%
- Mortality Rate @ 1 day (House Flies; [5]): 63%

SMILES: C/C(=N\C#N)N(C)Cc1ccc(Cl)nc1 [B, (E)-N^1-[(6-chloro-3-pyridyl)methyl]-N^2-cyano-N^1-methylacetamidine]
- Knockdown Rate @ 10 minutes (Red Imported Fire Ant; [6]): 0%
- Knockdown Rate @ 15 minutes (Red Imported Fire Ant; [6]): 0%
- Knockdown Rate @ 30 minutes (Red Imported Fire Ant; [6]): 10%
- Mortality Rate @ 60 minutes (Red Imported Fire Ant; [6]): 5%
- Mortality Rate @ 120 minutes (Red Imported Fire Ant; [6]): 65%
- Mortality Rate @ 240 minutes (Red Imported Fire Ant; [6]): 90%
- Knockdown Rate @ 10 minutes (Red Imported Fire Ant; [7]): 10%
- Knockdown Rate @ 15 minutes (Red Imported Fire Ant; [7]): 3%
- Knockdown Rate @ 30 minutes (Red Imported Fire Ant; [7]): 5%
- Mortality Rate @ 60 minutes (Red Imported Fire Ant; [7]): 13%
- Mortality Rate @ 120 minutes (Red Imported Fire Ant; [7]): 98%
- Mortality Rate @ 240 minutes (Red Imported Fire Ant; [7]): 100%
- Knockdown Rate @ 10 minutes (Red Imported Fire Ant; [8]): 0%
- Knockdown Rate @ 15 minutes (Red Imported Fire Ant; [8]): 15%
- Knockdown Rate @ 30 minutes (Red Imported Fire Ant; [8]): 15%
- Mortality Rate @ 60 minutes (Red Imported Fire Ant; [8]): 60%
- Mortality Rate @ 120 minutes (Red Imported Fire Ant; [8]): 100%
- Mortality Rate @ 240 minutes (Red Imported Fire Ant; [8]): 100%
- Mortality Rate @ 2 hours (Bed Bugs; [7]): 30%
- Mortality Rate @ 1 day (Bed Bugs; [7]): 95%
- Mortality Rate @ 2 hours (Bed Bugs; [8]): 60%
- Mortality Rate @ 1 day (Bed Bugs; [8]): 100%
- Mortality Rate @ 2 hours (Bed Bugs; [9]): 95%
- Mortality Rate @ 1 day (Bed Bugs; [9]): 100%
- Knockdown Rate @ 10 minutes (German cockroach; [5]): 0%
- Knockdown Rate @ 15 minutes (German cockroach; [5]): 13%
- Knockdown Rate @ 30 minutes (German cockroach; [5]): 38%
- Mortality Rate @ 60 minutes (German cockroach; [5]): 53%
- Mortality Rate @ 240 minutes (German cockroach; [5]): 63%
- Knockdown Rate @ 10 minutes (German cockroach; [10]): 0%
- Knockdown Rate @ 15 minutes (German cockroach; [10]): 8%
- Knockdown Rate @ 30 minutes (German cockroach; [10]): 38%
- Mortality Rate @ 60 minutes (German cockroach; [10]): 58%
- Mortality Rate @ 240 minutes (German cockroach; [10]): 63%
- Knockdown Rate @ 10 minutes (German cockroach; [7]): 10%
- Knockdown Rate @ 15 minutes (German cockroach; [7]): 35%
- Knockdown Rate @ 30 minutes (German cockroach; [7]): 75%
- Mortality Rate @ 60 minutes (German cockroach; [7]): 88%
- Mortality Rate @ 120 minutes (German cockroach; [7]): 90%
- Mortality Rate @ 240 minutes (German cockroach; [7]): 83%
- Knockdown Rate @ 10 minutes (German cockroach; [8]): 8%
- Knockdown Rate @ 15 minutes (German cockroach; [8]): 45%
- Knockdown Rate @ 30 minutes (German cockroach; [8]): 88%
- Mortality Rate @ 60 minutes (German cockroach; [8]): 80%
- Mortality Rate @ 120 minutes (German cockroach; [8]): 98%
- Mortality Rate @ 240 minutes (German cockroach; [8]): 80%
- Knockdown Rate @ 10 minutes (German cockroach; [9]): 38%
- Knockdown Rate @ 15 minutes (German cockroach; [9]): 75%
- Knockdown Rate @ 30 minutes (German cockroach; [9]): 93%
- Mortality Rate @ 60 minutes (German cockroach; [9]): 100%
- Mortality Rate @ 120 minutes (German cockroach; [9]): 98%
- Mortality Rate @ 240 minutes (German cockroach; [9]): 80%
- Knockdown Rate @ 15 minutes (House Flies; [10]): 47%
- Knockdown Rate @ 30 minutes (House Flies; [10]): 47%
- Knockdown Rate @ 60 minutes (House Flies; [10]): 53%
- Knockdown Rate @ 120 minutes (House Flies; [10]): 41%
- Knockdown Rate @ 240 minutes (House Flies; [10]): 53%
- Mortality Rate @ 1 day (House Flies; [10]): 16%
- Knockdown Rate @ 15 minutes (House Flies; [3]): 69%
- Knockdown Rate @ 30 minutes (House Flies; [3]): 86%
- Knockdown Rate @ 60 minutes (House Flies; [3]): 72%
- Knockdown Rate @ 120 minutes (House Flies; [3]): 72%
- Knockdown Rate @ 240 minutes (House Flies; [3]): 78%
- Mortality Rate @ 1 day (House Flies; [3]): 28%
